Series [1] relates to ischemia-reperfusion induced heart failure. Nature of the series: Model of chronic post-ischemic heart failure in rat (ischemia-reperfusion injury). In kind it is in vivo. As to the method:
Chronic heart failure was induced in male wistar rats (224-240 g, 10-11 weeks of age) by ischemia-reperfusion (I/R) injury. For I/R protocol, the left anterior descending (LAD) coronary artery was occluded for 1 h. Drug treatment (5 mg/kg/d or 10 mg/kg/d in drinking water) was initiated 1 week after reperfusion and was maintained for a 3 month study period. […] Cardiac specimens were also analyzed to assess hypertrophy and collagen content. The study design is depicted in FIG. 3. Experiments were performed in a blinded manner. On parameters measured over time, comparison of Sham versus Vehicle and comparison of drug treatments are analyzed by 2 way ANOVAs with repeated measures. On parameters measured at sacrifice and morphometry, comparisons of Sham versus Vehicle are analyzed by t-test and comparisons of drug treatments by 1-way ANOVA followed by Dunnett test.

The nature of series [2]: Metabolic stability in human hepatic microsomes (Clint, predicted MF %). The series is classed as in vitro ADME. As for the experimental part: (§1) Compound solubilization: Stock solutions were made in DMSO, and working solutions in water containing 1 mg/ml BSA.
(§2) Prediction of metabolic bioavailability: Metabolic bioavailability predictions (MF %) were based on in vitro metabolic stability measurements with hepatic microsomes assuming total absorption. Briefly, unchanged drugs were quantified by LC-MS-MS following incubation (10^−7M) with rat and human hepatic microsomes (0.33 mg protein/ml) after 0, 5, 15, 30 and 60 min of incubation in presence of NADPH (1 mM). Enzymatic reaction was stopped with methanol (v/v) and proteins were precipitated by centrifugation. The in vitro intrinsic clearances (Clint_mic) expressed as ml/min/g protein were the slope (after LN linearization) of the unchanged drug remaining concentration versus incubation time. In vitro Clint were then scaled up to in vivo whole body (vivoClint) using 0.045 mg prot/kg of liver and liver weight of 11 g for the rat and 1.2 kg for Man.

The nature of series [3]: Metabolic stability in rat hepatic microsomes (Clint, predicted MF %). The series is classed as in vitro ADME. As to the method: as §1, §2
The test system of another series is rat hepatocytes. Nature of the series: Metabolic stability in rat hepatocytes. In kind it is in vitro ADME. As to the method: (§3) Compound solubilization: Stock solutions were made in DMSO, and working solutions in William medium containing 1/10 rat plasma or 1/4 human plasma.
(§4) Metabolic stability determination: Compounds were incubated at 10^−7 M with isolated hepatocytes (6E+5 cells/ml for rat hepatocytes and 4E+5 cells/ml for human hepatocytes) at 37° C. in plasma from the same species diluted in Wiliams medium (1/10 dilution for rat and 1/4 dilution for human). Sampling times were performed at 0, 10, 20, 30, 60 and 120 min and enzymatic reaction stopped with methanol (v/v). Proteins were precipitated by centrifugation and the supernatant was analyzed by LC/MS/MS. Clint expressed as ml/min/g protein were calculated as for hepatic microsomes using a ratio of 0.134 mg protein/ml for 4E+5 cells/ml for human and 0.201 mg protein/ml for 6E+5 cells/ml for rat. The presence of the reference drug and the potential metabolite was checked by LC/MS/MS during the assay in each sample.

The next series relates to human hepatocytes. Nature of the series: Metabolic stability in human hepatocytes. In kind it is in vitro ADME. As for the experimental part:
as §3, §4

Series [4] can be described thus: Metabolic stability in rat microsomes (% remaining). The series is classed as in vitro ADME. As for the experimental part: 0.1M Tris HCl buffer at pH 7.4 containing 5 mM EDTA.
To a 50 mL falcon tube containing 2.79 mL of dilution buffer were added 0.429 mL of NADPH-regenerating soln. A and 0.079 mL of NADPH-regenerating soln. B […]
[…] A 50 mL falcon tube containing 3.32 mL of dilution buffer was prewarmed at 37° C. for 15 min. (at least 10 min.) 0.178 mL of microsome (24.6 mg/mL) were added to the prewarmed dilution buffer. The protein concentration of this microsome preparation was 1.25 mg/mL.
Sample (Test Compound)—Original and Intermediate Stock Solutions:
100 μM intermediate solution of the test compound from the original stock solution were prepared using the dilution buffer. A 5 μM solution was prepared by diluting the 100 μM intermediate solution using dilution buffer.
(The experiments were conducted in 1.5 mL eppendorf micro centrifuge tubes) 0 minutes incubation. Procedure: a. Add 100 μL of prewarmed microsomes b. Add 50 μL of 5 μM solution of the test compound. c. Add 500 μL of cold stop solution (ice cold Methanol) d. Add 100 μL of NADPH cofactor solution to the eppendorf. a. Vortex mix the eppendorf. […]
b. Add 100 μL of NADPH cofactor solution to the eppendorf. c. Add 50 μL of 5 μM solution of the test compound. d. Add 100 μL of prewarmed microsomes e. Incubate the eppendorf at 37° C. 300 rpm for ‘t’ min. on a thermomixer. f. Remove the eppendorf from thermomixer g. Add 500 μL of cold stop solution (ice cold Methanol) h. Vortex mix the eppendorf.
Both the ‘0’ and ‘t’ minutes incubated samples were centrifuged at 15, 000 rcf at 4° C. for 15 min. 500 μL of the supernatant solution was removed and subject it to LC/MS analysis (SIM—Selected Ion Monitoring) […]
Results are expressed as % test compound remaining=(MS Area response of T min sample/MS Area response of ‘0’ min sample)*100. The MS area used is an average of duplicate injections.
Time points=0, 15, 30 and 60 min. for each test compound
2 μM Imipramine—5 min. and 2 μM Imipramine—15 min. incubation was used as a positive control for the rat and mouse liver microsome stability experiments.

The mark [5] stands for this setting: 5 and 10 mg/kg/d in drinking water, one to three months, vs vehicle.
Where [6] appears, read: 5 and 10 mg/kg/d, invasive hemodynamics at 3 months, vs vehicle.
The mark [7] stands for this setting: 10^-7 M, 0.33 mg protein/ml, NADPH.
Setting [8] is: predicted from Clint assuming total absorption.

In the case of `COc1ccc2c(c1)CN(Cc1ccc(C(=O)O)cc1)CCS2` [Compound 1, 4-((7-Methoxy-2,3-dihydrobenzo[f][1,4]thiazepin-4(5H)-yl)methyl)benzoic acid], in series [1] (5 mg/kg/d in drinking water, 3 months), the “systolic and diastolic cardiac function” value is recorded as “beneficial effects”. Besides, the interstitial collagen content entry in series [1] (5 and 10 mg/kg/d in drinking water, 3 months, vs vehicle) is “reduced”. Moreover, in series [1] (setting [5]), the “Ejection Fraction (EF)” value was “significantly increased”, the “LVEDV (LV end diastolic volume)” value is recorded as “decreased” and the “LVESV (LV end systolic volume)” value was “decreased”. Further, in series [1] (5 and 10 mg/kg/d, 3 months), the “body weight (BW)” value is given as “No effects”, the “hypertrophy (LV weight)” value is on record as “No effects” and the infarct size result is listed as “No effects”. The LV systolic pressure entry in series [1] (5 and 10 mg/kg/d, invasive hemodynamics at 3 months) is on record as “no statistically significant change”. Moreover, in series [1] (setting [6]), the “LV dP/dt max” value is “preservation” and the “LV dP/dt min” value is given as “preservation”. Moreover, in series [2], the “Class (metabolic bioavailability)” value was “high”. Further, the “Clint_mic man (in vitro intrinsic clearance)” value in series [2] (setting [7]) is given as 9.1 ml/min/gprot. Further, the “MF mic % (metabolic bioavailability)” value in series [2] (setting [8]) is 75%. Further, the “Class (metabolic bioavailability)” value in series [3] was “Inter- mediate”. In addition, the “Clint_mic rat (in vitro intrinsic clearance)” value in series [3] (setting [7]) is 101 ml/min/gprot. In addition, in series [3] (setting [8]), the “MF mic % (metabolic bioavailability)” value is listed as 30%. The compound also had an MF rat % with rat hepatocytes of 90%. In addition, the Clint with rat hepatocytes (6.00E+05 cells/ml, 10^-7 M) was determined as 5 ml/min/gprot. In the series on human hepatocytes, the MF human % stood at 100%. In the series with human hepatocytes (4.00E+05 cells/ml, 10^-7 M), this compound displayed a Clint of 0 ml/min/gprot. For the same compound, the “% remaining” value in series [4] (15 min) is recorded as 54%. The “% remaining” value in series [4] (30 min) is listed as 17%. Further, in series [4] (1 h), the “% remaining” value was found to be 2%.

The values are drawn from patent publication US20130281512A1, “AGENTS FOR TREATING DISORDERS INVOLVING MODULATION OF RYANODINE RECEPTORS” (LES LABORATOIRES SERVIER, priority 2012, published 2013).
